Like-named read-outs stand apart in the source and are kept apart here.
Key:
[1] = target: human FTD Type A sarkosyl-insoluble brain extracts (Homo sapiens, UniProt Q13148); assay: Kd determination by micro-radiobinding assay on FTD Type A extracts; type: binding; conditions: tritiated compound 1.29 to 300 nM
Method: (§1) Human brain extracts were prepared as described in Laferriere et al., 2019, Nature Neurosc. A sample of brain tissue (frontal or temporal cortex) was homogenized at 1:4 (w/v) ratio in the homogenization-solubilization (HS) buffer at 4° C. using tissue homogenizer (Precellys) with CKmix homogenization tubes. The following sequence was used for homogenization: 3 cycles of 30 seconds at 5000 rpm (with 15 seconds pause between each cycle). Homogenized samples were aliquoted and stored at −80° C. in 1.5 mL low protein binding tubes.
(§2) Brain homogenates were thawed on ice and resuspended in HS buffer to obtain a final concentration of 2% sarkosyl, 1 unit/μL Benzonase and 1 mM MgCl2. The samples were then incubated at 37° C. under constant shaking at 600 rpm on a thermomixer for 45 minutes (min). The supernatants were collected in a new tube (sarkosyl-soluble fraction, S1). The pellet was resuspended in 1000 μL of myelin floatation buffer and centrifuged at 20,000 g for 60 min at 4° C. The supernatant was carefully removed to remove all the floating lipids. This step was repeated if all the lipids could not be removed in a single step. The pellet was subsequently washed with Phosphate-Buffered Saline (PBS) and centrifuged for 30 min at 20,000 g at 4° C. The final pellet was resuspended in 200 μL PBS and stored at −80° C. (sarkosyl-insoluble fraction). The samples were analyzed by immunoblotting in denaturing conditions.
Human FTD sarkosyl-insoluble brain extracts were spotted onto microarray slides. The slides were incubated with [^3H]-Compounds 1, 7, 8, 9, 15, 16 and 17 in a range of concentrations, varying from 1.29 to 300 nM. After incubation, slides were washed and scanned by a real-time autoradiography system (BeaQuant, ai4R). Quantification of the signal was performed by using the Beamage image analysis software (ai4R). Non-specific signal was determined with an excess of non-radiolabeled compound 1, 7, 8, 9, 15, 16 and 17 (1 μM), respectively, and specific binding was calculated by subtracting the non-specific signal from the total signal.
The Kd (Dissociation constant) and R^2 (parameter ranging between 0.0 and 1.0 that quantifies the goodness of fit, and the best curve fit obtained with value of 1.0) were obtained by fitting the specific binding data with non-linear regression analysis, using a one-site specific binding model in GraphPad Prism8.

Abeta = target: T1, Abeta (Homo sapiens, UniProt P05067); assay: Radiobinding competition assay using Abeta reference compound on AD insoluble fraction of brain homogenates; type: binding; conditions: against [3H]Abeta reference compound
T1 construct: an AD donor with confirmed burden of Tau and Abeta aggregates; from tissue; host or cells: frontal cortex of a human AD donor, Triton/sucrose-insoluble fraction
Method: Approximately 4 g of frozen tissue block from frontal cortex brain region was used from an AD donor with confirmed burden of Tau and Abeta aggregates. The tissue was homogenized in three volumes (1:3 w/v) of high salt buffer (50 mM Tris-HCl pH 7.5, 750 mM NaCl, 5 mM EDTA) supplemented with protease inhibitors (Complete; Roche 11697498001) at 4° C. with a glass Dounce homogenizer. The homogenate was transferred into polycarbonate centrifuge bottles (16×76 mm; Beckman 355603) and centrifuged at 100,000×g (38,000 RPM) in an ultracentrifuge (Beckman, XL100K) for 60 minutes at 4° C. using a pre-cooled 70.1 rotor (Beckman, 342184). Pellets were resuspended in high salt buffer supplemented with 1% Triton X-100 and homogenized at 4° C. with a syringe. The homogenates were centrifuged again at 100,000×g (38,000 RPM, 70.1 rotor) for 60 minutes at 4° C. Pellets were resuspended in high salt buffer supplemented with 1% Triton X-100 and 1 M sucrose and homogenized at 4° C. with a syringe. The homogenates were centrifuged at 100,000×g (38,000 RPM, 70.1 rotor) for 60 minutes at 4° C. The resulting pellets containing insoluble fraction were resuspended in PBS (1:2 w/v relative to starting tissue weight), aliquoted and stored at −80° C. until use.
The reaction was performed in assay buffer (50 mM Tris pH 7.5 in 0.9% NaCl, 0.1% BSA) and incubated for two hours at room temperature (RT). Samples in duplicate were then filtered under vacuum in GF/C filter plates (PerkinElmer) to trap the aggregates with the bound radioligand and washed with 100 μL ice-cold 50 mM Tris pH 7.5. The GF/C filters were then dried and scintillation liquid (UltimateGold, PerkinElmer, 6013151) was added in each well. The filters were analyzed on a Microbeta2 scintillation counter (PerkinElmer). Values for the maximal signal were obtained in the absence of non-radiolabeled compound, while 100% displacement was obtained using 1 μM of non-radiolabeled reference compound. Ki values were calculated by nonlinear regression, using a one site—fit Ki model in Prism V7 (GraphPad).

TDP-43 aggregates = TDP-43 aggregates (Homo sapiens, UniProt Q13148); assay: Classical autoradiography in brain sections from patients with FTD; type: binding
Method: All tissues were collected from donors for or from whom a written informed consent for a brain autopsy and the use of the material and clinical information for research purposes had been obtained by the respective brain banks. All samples were anonymized and coded. Frozen brain tissue blocks with confirmed TDP-43 pathology upon autopsy were processed using a cryotome to generate sections of 10 μm in thickness and mounted on glass slides. Sections were kept at −80° C. until use.
Brain sections were fixed for 15 minutes at 4° C. with 4% formaldehyde on ice and washed three times for eight minutes with 1×PBS at RT. Sections were blocked in assay buffer for 30 minutes (50 mM Tris-HCl, 0.9% NaCl+0.1% BSA). Cold test compound (Compound 1, Compound 8 or Compound 17) was diluted in assay buffer to 4 μM and applied on half of the sections for 40 minutes at RT to determine non-specific binding. The remaining half of the sections were only incubated with assay buffer (total binding). Following this incubation, an equal volume of the corresponding tritiated compound (i.e. [^3H]-Compound 1, [^3H]-Compound 8 or [^3H]-Compound 17, respectively), diluted to 20 nM (for [^3H]-Compound 1 and [^3H]-Compound 8) or 10 nM ([^3H]-Compound 17) or increasing concentration from 0.1 to 200 nM (for [^3H]-Compound 1 and [^3H]-Compound 17), was added on sections and incubated for 2 hours at RT and then washed as follows: once in ice-cold 50 mM Tris-HCl pH 7.4 buffer for one minute, twice in ice-cold PBS for one minute, once in ice-cold 50 mM Tris-HCl pH 7.4 buffer for one minute and finally rinsed briefly in ice-cold distilled water.
Sections were subsequently dried under a stream of air and mounted with a copper-based adhesive strip. Bound radioactivity was quantified by exposing the slides in a real-time autoradiography system (Beaquant™ AI4R) for 2 hours, with measurement settings configured for tritium. Beavacq software (AI4R) was used to acquire the image which was subsequently quantified using Beamage image analysis software (AI4R). Specific binding (non-specific binding subtracted from total) and displacement (total binding divided by non-specific) were calculated. Bar graphs were generated using GraphPad Prism. For Kd determination on brain sections, the specific binding data were fitted with a non-linear regression analysis using a one-site specific binding model in GraphPad Prism.

[2] = target: T2, Human brain derived TDP-43 aggregates (Homo sapiens, UniProt Q13148); assay: Micro-radiobinding competition assay for binding affinity to TDP-43; conditions: for Ki: 0.24 nM to 2 μM vs tritiated reference ligand at 40 nM; for Human brain derived TDP-43 aggregates Mean % competition at 250 nM: non-radiolabeled compound at 250 nM vs tritiated reference ligand at 40 nM; for Human brain derived TDP-43 aggregates Mean % competition at 250 nM / Human brain derived TDP-43 aggregates Mean % competition at 2 μM: FTD sarkosyl-insoluble brain extracts; for Human brain derived TDP-43 aggregates Mean % competition at 2 μM: non-radiolabeled compound at 2 μM vs tritiated reference ligand at 40 nM
T2 construct: Human FTD sarkosyl-insoluble brain extracts were spotted onto microarray slides
Method: as §1, §2
Human FTD sarkosyl-insoluble brain extracts were spotted onto microarray slides. The slides were incubated with a tritiated reference ligand at 40 nM, and the example compounds (non-radiolabeled) at 2 μM and 250 nM. […] After incubation, slides were washed and scanned by a real-time autoradiography system (BeaQuant, ai4R). Quantification of the signal was performed by using the Beamage image analysis software (ai4R). Non-specific signal was determined with an excess of non-radiolabeled reference compound (2 μM) and specific binding was calculated by subtracting the non-specific signal from the total signal. Competition was calculated as percent, where 0% was defined as the specific binding in the presence of vehicle and 100% as the values obtained in the presence of excess of the non-radiolabeled reference compound. Ki values were calculated in GraphPad Prism8 by applying a nonlinear regression curve fit using a one site, specific binding model. Measurements were performed with at least two technical replicates in the two-concentration competition experiment and with one technical replicate in the experiments including a range of concentrations. For compounds tested in more than one experiment, the mean of the replicates or Ki values in independent experiments is reported.

[3] = PK studies in healthy monkey (PET); type: in vivo; conditions: iv, Non-Human Primate; for Time of brain entry post injection / Washout: peak to half peak: whole brain
Method: Non-Human Primate (NHP) was injected intravenously (iv) with the [^18F]-labeled Compound 1 ([^18F]Compound 1) (4.2 mCi) or with the [^18F]-labeled Compound 17 ([^18F]-Compound 17) (5.3 mCi). Monkey PET scans were performed using a Siemens Focus 220. PET acquisition started immediately before the radioactive dose was injected. Images were generated as dynamic scans for 120 minutes with head focused.

[4] = cells printed in μM, read-out: Ki on AD brain homogenates
[5] = total binding divided by non-specific binding, grey matter, self-block with cold compound

TDP-43 aggregates, sequence (Q13148 whole entry): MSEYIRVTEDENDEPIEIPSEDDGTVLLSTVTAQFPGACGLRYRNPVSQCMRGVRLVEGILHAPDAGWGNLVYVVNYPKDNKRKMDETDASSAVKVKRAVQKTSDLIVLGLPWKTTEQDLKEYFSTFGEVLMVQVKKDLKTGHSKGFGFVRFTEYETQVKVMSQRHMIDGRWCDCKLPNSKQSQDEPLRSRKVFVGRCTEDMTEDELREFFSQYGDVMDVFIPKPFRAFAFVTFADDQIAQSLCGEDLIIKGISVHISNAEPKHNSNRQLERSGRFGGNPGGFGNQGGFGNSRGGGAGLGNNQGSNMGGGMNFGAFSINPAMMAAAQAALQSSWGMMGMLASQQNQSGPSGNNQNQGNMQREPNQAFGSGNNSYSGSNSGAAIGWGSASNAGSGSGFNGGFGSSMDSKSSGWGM
T2 sequence (Q13148 261-414 limits assumed): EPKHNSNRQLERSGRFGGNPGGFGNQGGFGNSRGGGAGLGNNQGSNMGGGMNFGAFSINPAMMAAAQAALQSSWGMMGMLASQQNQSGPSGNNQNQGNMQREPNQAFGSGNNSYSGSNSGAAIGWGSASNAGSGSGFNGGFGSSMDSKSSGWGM
T1 sequence (P05067 672-713 limits assumed): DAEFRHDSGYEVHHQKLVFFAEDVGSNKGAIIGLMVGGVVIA
human FTD Type A sarkosyl-insoluble brain extracts, sequence (Q13148 263-414 limits assumed): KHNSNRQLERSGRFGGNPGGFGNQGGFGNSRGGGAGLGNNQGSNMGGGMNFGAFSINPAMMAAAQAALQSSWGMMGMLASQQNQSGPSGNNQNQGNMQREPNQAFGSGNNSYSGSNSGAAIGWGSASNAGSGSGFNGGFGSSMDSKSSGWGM

| SMILES | Kd [1] [nM] | Ki (Abeta; [4]) [µM] | Ki [2] [nM] | Human brain derived TDP-43 aggregates Mean % competition at 250 nM [2] [%] | Human brain derived TDP-43 aggregates Mean % competition at 2 μM [2] [%] | also measured |
| --- | --- | --- | --- | --- | --- | --- |
| [3H]c1cncc(N2CCc3nc(-c4cc([3H])c(N5CC[C@H](F)C5)nc4F)sc3C2=O)c1 [[^3H]-Compound 8, tritiated (S)-2-(2-fluoro-6-(3-fluoropyrrolidin-1-yl)pyridin-3-yl)-5-(pyridin-3-yl)-6,7-dihydrothiazolo[5,4-c]pyridin-4(5H)-one] | 47 ± 8 | – | – | – | – | – |
| [3H]c1cnc(N2CCc3nc(-c4cc([3H])c(N5CC[C@@H](F)C5)nc4F)sc3C2=O)nc1 [[^3H]-Compound 15, Tritiated 2-[2-fluoro-6-[(3R)-3-fluoropyrrolidin-1-yl]-3-pyridyl]-5-pyrimidin-2-yl-6,7-dihydrothiazolo[5,4-c]pyridine-4-one] | 21 ± 7 | – | – | – | – | – |
| O=C1c2sc(-c3ccc(N4CC[C@H](F)C4)nc3F)nc2CCN1c1cccnc1 [Compound 8, (S)-2-(2-fluoro-6-(3-fluoropyrrolidin-1-yl)pyridin-3-yl)-5-(pyridin-3-yl)-6,7-dihydrothiazolo[5,4-c]pyridin-4(5H)-one] | – | > 1 | 73 | 55 | 73 | Displacement on FTLD-TDP type A and B compared to non-demented control (TDP-43 aggregates; classical autoradiography): increased displacement; cARG displacement on FTLD-TDP Type A case (TDP-43 aggregates; [5]): 3.0; cARG displacement on FTLD-TDP Type B case (TDP-43 aggregates; [5]): 3.3; cARG displacement on non-demented control (TDP-43 aggregates; [5]): 2.3 |
| O=C1c2sc(-c3ccc(N4CC[C@H](F)C4)nc3F)nc2CCN1c1ncccn1 [[^3H]-Compound 16] | 24 ± 3 | – | – | – | – | – |
| [3H]c1cc(N2CCc3nc(-c4cc([3H])c(N5CC[C@@H](F)C5)nc4F)sc3C2=O)ccn1 [[^3H]-Compound 7, Tritiated (R)-2-(2-fluoro-6-(3-fluoropyrrolidin-1-yl)pyridin-3-yl)-5-(pyridin-4-yl)-6,7-dihydrothiazolo[5,4-c]pyridin-4(5H)-one] | 39 ± 11 | – | – | – | – | – |
| O=C1c2sc(-c3ccc(N4CCC(CO)CC4)nc3[18F])nc2CCN1c1cccnc1 [[^18F]-Compound 17, 2-(2-(fluoro-^18F)-6-(4-(hydroxymethyl)piperidin-1-yl)pyridin-3-yl)-5-(pyridin-3-yl)-6,7-dihydrothiazolo[5,4-c]pyridin-4(5H)-one] | – | – | – | – | – | SUVmax whole brain [3]: 1.1 SUVmax; Time of brain entry post injection [3]: 4.5 min; Washout: peak to half peak [3]: < 13 min |
| O=C1c2sc(-c3ccc(N4CC[C@@H]([18F])C4)nc3F)nc2CCN1c1cccnc1 [[^18F]-Compound 1, fluorinated 2-[2-fluoro-6-[(3R)-3-fluoropyrrolidin-1-yl]-3-pyridyl]-5-(3-pyridyl)-6,7-dihydrothiazolo[5,4-c]pyridin-4-one] | – | – | – | – | – | SUVmax whole brain [3]: 2.7 SUVmax; Time of brain entry post injection [3]: 5.5 min; Washout: peak to half peak [3]: < 17 min |
| O=C1c2sc(-c3ccc(N4CCC[C@H](F)C4)nc3F)nc2CCN1c1ncccn1 [Compound 35] | – | > 1 | 49 | 55 | 70 | – |
| O=C1c2sc(-c3ccc(N4CC[C@H](F)C4)nc3F)nc2CCN1c1ccncn1 [Compound 37] | – | > 1 | 25 | 80 | 70 | – |
| Nc1cc(N2CCc3nc(-c4ccc(N5CC[C@H](F)C5)nc4F)sc3C2=O)ccn1 [Compound 26] | – | – | 13 | 55 | 91 | Ki (Abeta; read-out: Ki (nM) on AD brain homogenates): 0.318 µM |

Reference: patent publication US20260103474A1, “NOVEL COMPOUNDS FOR THE DIAGNOSIS OF TDP-43 PROTEINOPATHIES” (AC IMMUNE SA, priority 2022, published 2026)
